18 compounds from patent US9051342B2 (priority 2004, dated 2015) can be followed below.

SMILES strings stand for the structures.

On to `O=C(O)c1cccc(-n2cc(-c3ccc(Cl)cc3)cn2)c1` [Compound 49, 3-[4-(4-Chloro-phenyl)-pyrazol-1-yl]-benzoic acid], for which the melting point lay in the range of 253 to 254 °C. The same measure for `COc1ccc(-c2cnn(-c3ccc(C(=O)O)cc3)c2)cc1` [Compound 50, 4-[4-(4-Methoxy-phenyl)-pyrazol-1-yl]-benzoic acid]: 289 to 290 °C; for `Cc1ccc(-c2cnn(-c3ccc(C(=O)O)cc3)c2)cc1` [Compound 51, 4-(4-p-Tolyl-pyrazol-1-yl)-benzoic acid]: 298 to 299 °C. `O=C(O)c1ccc(-n2cc(-c3ccc(Cl)cc3)cn2)cc1` [Compound 52, 4-[4-(4-Chloro-phenyl)-pyrazol-1-yl]-benzoic acid] returned a melting point of 300 to 302 °C. The same measure for `COc1ccc(-n2cc(-c3cccc(C(=O)O)n3)cn2)cc1` [Compound 53, 6-[1-(4-Methoxy-phenyl)-1H-pyrazol-4-yl]-pyridine-2-carboxylic acid]: 122 to 123 °C; for `O=C(O)c1cccc(-c2cnn(-c3ccc(Cl)cc3)c2)n1` [Compound 54, 6-[1-(4-Chloro-phenyl)-1H-pyrazol-4-yl]-pyridine-2-carboxylic acid]: 194 to 196 °C. The same measure for `COc1ccc(-n2cc(-c3cc(C(=O)O)ccc3[N+](=O)[O-])cn2)cc1` [Compound 55, 3-[1-(4-Methoxy-phenyl)-1H-pyrazol-4-yl]-4-nitro-benzoic acid]: 249 to 250 °C. `O=C(O)c1ccc([N+](=O)[O-])c(-c2cnn(-c3ccc(Cl)cc3)c2)c1` [Compound 56, 3-[1-(4-Chloro-phenyl)-1H-pyrazol-4-yl]-4-nitro-benzoic acid] yielded a melting point of 270 to 271 °C. To `N#Cc1cccc(-c2ccn(-c3ccccc3)n2)c1` [Compound 57, 3-(1-Phenyl-1H-pyrazol-3-yl)-benzonitrile] belongs 78 to 80 °C; to `COc1ccc(-n2ccc(-c3cccc(C#N)c3)n2)cc1` [Compound 58, 3-[1-(4-Methoxy-phenyl)-1H-pyrazol-3-yl]-benzonitrile], 110 to 112 °C; to `COc1cccc(-n2ccc(-c3cccc(C#N)c3)n2)c1` [Compound 59, 3-[1-(3-Methoxy-phenyl)-1H-pyrazol-3-yl]-benzonitrile], 100 to 101 °C.

In turn, `N#Cc1cccc(-c2ccn(-c3ccc4c(c3)OCO4)n2)c1` [Compound 60, 3-(1-Benzo[1,3]dioxol-5-yl-1H-pyrazol-3-yl)-benzonitrile] displayed a melting point of 144 to 147 °C.

The compound `N#Cc1cccc(-c2ccn(-c3ccc(OC(F)(F)F)cc3)n2)c1` [Compound 61, 3-[1-(4-Trifluoromethoxy-phenyl)-1H-pyrazol-3-yl]-benzonitrile] registered a melting point of 83 to 84 °C. `N#Cc1cccc(-c2ccn(-c3ccc(C(F)(F)F)cc3)n2)c1` [Compound 62, 3-[1-(4-Trifluoromethyl-phenyl)-1H-pyrazol-3-yl]-benzonitrile] returned a melting point of 70 to 74 °C. In the case of `N#Cc1cccc(-c2ccn(-c3ccc(F)c(F)c3)n2)c1` [Compound 63, 3-[1-(3,4-Difluoro-phenyl)-1H-pyrazol-3-yl]-benzonitrile], the melting point lay in the range of 142 to 145 °C. To `COC(=O)c1cccc(-n2ccc(-c3cccc(C#N)c3)n2)c1` [Compound 64, 3-[3-(3-Cyano-phenyl)-pyrazol-1-yl]-benzoic acid methyl ester] belongs 143 to 145 °C; to `O=C(O)c1cccc(-c2ccn(-c3ccccc3)n2)c1` [Compound 65, 3-(1-Phenyl-1H-pyrazol-3-yl)-benzoic acid], 202 to 204 °C; to `O=C(O)c1cccc(-c2ccn(-c3ccc(C(F)(F)F)cc3)n2)c1` [Compound 67, 3-[1-(4-Trifluoromethyl-phenyl)-1H-pyrazol-3-yl]-benzoic acid], 225 to 227 °C.
